Laboratory results taken from patent US20240172757A1, “METHOD OF […] A […] CROP” (priority 2021, published 2024).

Legend:
soybean plant crop [1] = experiment: Field test runs: acceleration of senescence/maturation and time to harvest of soybean crop after spraying at a reproductive growth stage; format: in vivo
From the text: The solution of 2-chloroethylphosphonic acid may be prepared by mixing together 2-chloroethylphosphonic acid (known as ethephon in liquid form and obtainable from a number of sources) with a water solution or a liquid medium that is non-toxic to the particular legume desired. Most commercial sprayers are suitable for preparation and/or application of the solution described herein. To prepare the mixture, during test runs, a tank comprising a capacity of 600 gallons and an agitator was used. Continuous agitation of the mixture during preparation seems to provide best results.
In some embodiments, the 2-chloroethylphosphonic acid solution may comprise a water-soluble urea comprising approximately 46% nitrogen. A dry form of nitrogen may be part of the water solution or it may be part of the 2-chloroethylphosphonic acid solution with suitable mixing. Mixing is performed continuously in certain embodiments. During some test runs, approximately 4 pounds of urea per acre was added to about 10 gallons (83.4 pounds) of water per acre, followed by approximately 1.5 pounds of 2-chloroethylphosphonic acid per acre. In some embodiments, the 2-chloroethylphosphonic acid may also comprise a spreader-sticker. The spreader-sticker may be added, for example, at a rate of 2 ounces (0.125 pounds) per acre and may be silicone-based. A suitable silicone-based spreader-sticker, for example, is Kinetic by Helena. Other non-silicone-based sticker-spreaders may also be used.
Application of the 2-chloroethylphosphonic acid solution should be performed when the leguminous plant crop comprises at least 50% of the planted crops in the field at a seed growth stage. In some embodiments, the leguminous plant may be at an R5 growth stage when application of the solution described herein is performed. During R5, a fully developed seed pod may comprise, for example, a match-head sized seed in the pod. In some embodiments, the leguminous plant may be at growth stage R5.5, or between R5 and R6 for application. In some embodiments, application is performed when at least 50% of the planted leguminous plant crop is at an R6 reproductive growth stage, as described above. For example, R6 may be visually characterized or identified when at least 50% of the leguminous plant crop comprises at least one seed or “green bean” (in a top pod of the plant) comprising a width equal to its pod cavity. In some embodiments, the leguminous plant may be at growth stage R6.5, or at or between R6 and R7. During some test runs, senescence was achieved within 5 days after application of the solution described herein, with successful harvesting of quality crop. By way of example, prior to application, the physiological stage of the leguminous plant may be determined by inspecting the terminal (or last growing point at the top) end of the leguminous plant crop for a seed pod. Triggering maturation at the R5 growth stage may produce smaller seeds. For commercial production, triggering at R6 may be most successful to obtain more seed at a greater weight.
Application of the solution described herein may perform best at temperatures below 98° F. In some embodiments, application of the solution is performed at a temperature below about 90° F. Successful test runs, by way of example, described below were performed at 88° F.
During trial runs, soybean plant crops were planted on plot sizes ranging from 25-150 acres. Soybean plant crops were planted on soil used for rotational crops including, for example, grass crop, corn crop, or grain crop. Crops were seeded approximately 1-1.5 inches deep with a twin line planter. No other pretreatments were performed on the soil during test runs. Ground application was performed on raised beds using a flow jet capable of delivering a minimum of 10-20 gallons per acre. Raised beds were used during some test runs. Furrow irrigation was used to water the soybean plant crop, applying water to the top end of each furrow. […]

soybean plant crop [2] = experiment: Composition, yield and seed quality analysis of harvested soybeans after spraying at R6; format: in vivo
Experimental: During trial applications of the solutions described herein, composition, yield and seed quality was analyzed. It was discovered that even under challenges such as hotter than normal temperatures and drought conditions, the solutions described herein allow for manipulation of the seasons for advantageous harvesting of high quality soybeans. Soybean crop (variety “Linda,” a group 5.6 determinate soybean) was planted in 8-24 row strips following a fall corn crop. Herbicide was applied at 3 pints/acre and crop was fertilized with 20 gallons of 32-0-0 per acre, followed by irrigation as needed. Soil maps indicated two different soil types (Harlingen clay and Olmito clay) in the field that bisected the field, with the second replication having slightly less Olmito clay in the treated area. As they are both components of the other, the field was consistent to visual observation. […] The growth stage of the beans at this point is still very rapid but the dry weight and nutrient accumulation begins to slow in the whole plant by R6.5 which is just 7-10 days later in many cases. Another indicator of the R6 stage is visual signs of senescence in the older leaves of the plants.
Sprayer comprising the 2-chloroethylphosphonic acid solution was prepared and applied as described above at the following rates of Table. 1. Weather conditions at the time of spraying can be found in Table 2.
The sprayed crops were monitored daily to observe phenotypic changes which included leaf color, leaf drop, pod desiccation, and any visual between treatments. After two days post-spraying, photographs were taken to show the changes in color due to senescense taking place.
Harvest was slightly delayed (about 3 days) due to unavailability of the combine, however, even with this delay, harvested crops were sent for composition and seed quality parameters. The actual harvest during these test runs was well below a soybean moisture content of a market standard 13%.
The 0.75 pounds of the 2-chloroethylphosphonic acid solution per acre rate was highest in crude fat, crude protein, digestible energy and total digestible nutrients (TDN) while being lowest in crude fiber. […] FIGS. 1 through 4 illustrate major nutritional components affected by treatment rate, where the term “a.i.” is meant to refer to the 2-chloroethylphosphonic acid solution described above. FIG. 1 is a graph of crude protein affected by treatment rate of 2-chloroethylphosphonic acid solution according to an embodiment. FIG. 2 is a graph of crude fat affected by treatment rate of 2-chloroethylphosphonic acid solution according to an embodiment. FIG. 3 is a graph of crude fiber affected by treatment rate of 2-chloroethylphosphonic acid solution according to an embodiment. FIG. 4 is a graph of total digestible nutrients affected by treatment rate of 2-chloroethylphosphonic acid solution according to an embodiment.

## O=P(O)(O)CCCl [2-chloroethylphosphonic acid]
Soybean plant crop [1]; about 0.375 pounds per acre at the R-6 stage
  acceleration of maturation in soybean plants: significant acceleration of maturation
Soybean plant crop [1]; about 0.75 pounds per acre at the R-6 reproductive growth stage
  accelerated maturation of a soybean plant: Accelerated maturation
Soybean plant crop [1]; following application at a reproductive growth stage
  harvesting stage reached sooner than without spraying: 10 to 14 days
Soybean plant crop [1]; in some cases, high temperature and high humidity environments
  maturation achieved faster than when not treated: up to 40 days
Soybean plant crop [1]; in some cases, versus typical minimum 39-day period
  days shaved off waiting times: about 30 days
Soybean plant crop [1]; some test runs
  time to senescence after application: ≤ 5 days
Soybean plant crop [1]; trial runs, 25-150 acre plots
  germination rate: ≥ 90%
Soybean plant crop [2]; 0.375 pounds per acre, R6
  total digestible nutrients (TDN) (rank among treatments): Ranked behind that in TDN
Soybean plant crop [2]; 0.75 pounds per acre, R6
  crude fat (rank among treatments): highest
  crude fiber (rank among treatments): lowest
  crude protein (rank among treatments): highest
  digestible energy (rank among treatments): highest
  total digestible nutrients (TDN) (rank among treatments): highest
Soybean plant crop [2]; all three treatments (0.375, 0.75, 1.125 pounds per acre)
  overall nutrients versus untreated: improved overall nutrients
